Assay results from ChEMBL document CHEMBL3507680, “University of Dundee, Gates Library screen for HepG2 cell viability”.

Experiment: Human HepG2 cell viability assay in 384 well format
Format: toxicity, cell-based
Design: dose 125 nL, time 70.5 hour; concentration not given beside the values
Conditions: HepG2 cells, read-out: Inhibition

SMILES	cytotoxicity at 70.5 h [%]
Cc1noc(C)c1-c1cncc(C2CCCN2Cc2ncccc2F)n1 (centres undefined)	-6.52
CNc1cc(C2CCCN(Cc3ccccc3OCC(=O)O)C2)ccn1 (centres undefined)	-8.72
O=C(N1CCCCC1)N1CCCC(c2ncncc2-c2ccncc2)C1 (centres undefined)	-8.3
CC(=O)N1CCCC(c2ncncc2-c2ccncc2)C1 (centres undefined)	-7.71
COc1ccc(C2Nc3cc(Cl)ccc3C3=NCCN32)cc1O (centres undefined)	-1.91
Cc1nn(C)c(C)c1-c1cnc(C2CCCN(S(C)(=O)=O)C2)cn1 (centres undefined)	-9.63
Cc1cc(CCC(N)=O)cc(C2CCCN2Cc2cnc(C)nc2)n1 (centres undefined)	-7.32
Cc1cc(N2CCCC2c2cncc(N(C)C)n2)ncn1 (centres undefined)	1.3
Cc1ccnc(C2CCCN2C(=O)CN(C)C)n1 (centres undefined)	-1.48
Cc1cccc(C(=O)N2CC(Cc3nccc4ccn(C)c34)C2)n1	1.37
Cc1nc(C2CCCN2C(=O)c2ccc(F)cc2)ncc1C(N)=O (centres undefined)	-3.31
CC(=O)N1CCN(c2cc(C3CN(C(C)=O)CCO3)nc(C)n2)CC1 (centres undefined)	-4.45
COc1ccccc1CN1CCC(c2nn(CCN)c3nccnc23)C1 (centres undefined)	-0.747
Cc1ccccc1CN1CCC(c2nn(CCN)c3nccnc23)C1 (centres undefined)	-0.306
CCC(CC)C(=O)N1CCC(c2nn(CCN)c3nccnc23)C1 (centres undefined)	-4.84
O=C(CC1CCCCC1)N1CCC(c2ncc3c(n2)CCNC3)CC1	-7.09
CCC(=O)N1CCC(c2ncc3c(n2)CCNC3)CC1	-4.58
CN1CCCCC1c1ncc2c(n1)CCN(CCCc1ccccc1)C2 (centres undefined)	16.2
O=C(C1CCCC1)N1CCC(c2ncc3c(n2)CCNC3)C1 (centres undefined)	-5.84
NC(=O)CN1CCCC(c2nccnc2Oc2cccc(F)c2)C1 (centres undefined)	-9.46
Cc1cccc(CN2CCC(C3Nc4ccccc4S(=O)(=O)N3)CC2)n1 (centres undefined)	-2.6
Cc1ccc2c(c1)C(=O)NCC1(CCN(C(=O)c3sccc3C)CC1)O2	-5.39
Cc1ccc2c(c1)C(=O)NCC1(CCN(C(=O)c3cnccn3)CC1)O2	-11

SMILES	cytotoxicity at 70.5 h [%]
Cc1cc2c(=O)n3c(nc2s1)CCN(C(=O)c1ccnn1C)CC3	-8.17
CCCC(=O)N1CCC(c2cc3n(n2)[C@@H](C(F)(F)F)C[C@@H](C)N3)CC1	-3.97
Cc1ccc(S(=O)(=O)N2C[C@H]3C[C@H](NC(=O)c4cscn4)[C@H]3C2)cc1	9.07
Cc1ccc(-c2cc(N)c(=O)n(C(C)C(=O)NCC3CCCCC3)n2)s1 (centres undefined)	18
Cc1ccc(-c2cc(N)c(=O)n(CC(=O)NC3CCCC3)n2)s1	13
Cc1ccc2c(c1)C(=O)NCC1(CCN(C(=O)c3csc(C)c3)CC1)O2	-9.12
Cc1ccc2c(c1)C(=O)NCC1(CCN(C(=O)c3scnc3C)CC1)O2	-6.59
Clc1ccccc1CN1CCCC(c2nnc(-c3cnccn3)o2)C1 (centres undefined)	-5.49
Cn1nccc1C(=O)N1C[C@@H]2CC[C@H](Oc3cccc(F)c3)[C@@H]2C1	-3.82
NCc1cnn(-c2ccccc2C(=O)NCc2ccccn2)c1	-5.83
Cc1noc(CNC(=O)c2ccccc2-n2cc(CN)cn2)n1	-5.09
CN(CC1(O)CCCN(c2ccccn2)C1)C(=O)CC1CCOCC1 (centres undefined)	-9.69
Cn1cc(CN2CC[C@H](O)[C@@H](n3ccc(=O)[nH]c3=O)CC2)cn1	12.4
Cc1noc(C)c1-c1cncc(C2CCCN2Cc2cc[nH]n2)n1 (centres undefined)	-3.25
CN(C)CC(=O)N1CCCCC1c1nc(N)ncc1-c1ccccc1 (centres undefined)	5.62
CC(=O)N1CCCC(Cc2cnc(C(=O)N3CCC(C)CC3)cn2)C1 (centres undefined)	-5.67
CCn1ccc(C(=O)N2CCCC2(C)c2nc(C)cc(N(C)C)n2)n1 (centres undefined)	-7.92
CN1CCCC(Cc2cncc(C(=O)N3CCOCC3)c2)C1 (centres undefined)	12.9
Cc1ccc(S(=O)(=O)N2CCC(c3n[nH]cc3C)C2)cc1 (centres undefined)	-1.04
COc1ccc(CN2CCC(c3nccnc3-n3ccnc3)CC2)cc1	-5.25
OCCN1CCCC(c2nccnc2Oc2ccccc2)C1 (centres undefined)	-6.87
CN(C)C(=O)CN1CCCC1c1nc(N)ncc1-c1ccc(F)cc1 (centres undefined)	2.44
CC(C)CC(NC(=O)CSCC(N)=O)c1cccs1 (centres undefined)	-5.44

SMILES	cytotoxicity at 70.5 h [%]
COc1ccccc1CC1CCCN1C(=O)c1cn[nH]c1C (centres undefined)	-4.05
CN(C(=O)OC(C)(C)C)C1CCN(C(=O)c2cc(Cl)c[nH]2)C1 (centres undefined)	13
O=C(c1cnc(-c2ccccc2)nc1)N1CCOC2(CCCC2)C1	-8.9
CNC(=O)CN(C)S(=O)(=O)c1c(Br)cc2[nH]c(=O)oc2c1Cl	-3.9
Cc1nn(C)c2ncc(NC(=O)N(C)Cc3cc(Cl)cn3C)cc12	-4.9
NC(=O)N1CCCN(CCCSCc2ccccc2)CC1	-17.6
FC(F)Oc1ccc(CNCc2cc(Br)c3c(c2)OCO3)cc1	-6.89
CCN(CC1CCOC1)S(=O)(=O)Cc1cc(Cl)ccc1OC (centres undefined)	-14.8
CC(=O)N1CCCN(CCCc2ccccc2)CC1	-6.32
CC(C)c1nnc2n1CCN(Cc1ccc3c(c1)OCCO3)C2	0.93
CCC(C)NC(=O)c1sccc1-n1cnnn1 (centres undefined)	27.2
CC(C)OCCCNC(=O)CN1CCN(c2nccs2)CC1	-4.41
Cc1cnn(C2CN(c3ccccc3S(=O)(=O)C(F)(F)F)C2)c1	1.3
Cn1nc(C(=O)NCc2ccc(OC3CCCCC3)nc2)ccc1=O	21.9
COc1ccc2c(c1)OCC(CNC1CCc3ncnn3C1)=C2 (centres undefined)	-0.263
CC(c1ccc(F)cc1F)N1CCN(CCC(=O)NC(N)=O)CC1 (centres undefined)	-6.26
CC(c1ccc(F)cc1F)N1CCN(CCN2CCCC2=O)CC1 (centres undefined)	-4.44
CC(c1nc(C2CC2)no1)N1CCc2c(ncn2C2CC2)C1 (centres undefined)	-7.1
Cc1ccc(C(=O)NCc2cc(F)ccc2N2CCCN(C)CC2)o1	1.17
CCc1nnc(CS(=O)(=O)c2ccc(C)c(C)c2)n1C	26.2
CC(OCC1CC1)C(=O)Nc1cccc(C(=O)Nc2ccccn2)c1 (centres undefined)	-8.38
Cc1cc(C)n(CCN2CCC(N(C)Cc3nnc(C)n3C)C2)n1 (centres undefined)	-0.44
CC1CN(CC(=O)NCc2ccc(F)cc2)CCN1c1nccs1 (centres undefined)	0.122

SMILES	cytotoxicity at 70.5 h [%]
CN1CCCN(c2ccc(F)cc2CNC(=O)c2ccsc2)CC1	-4.69
COc1cc(NC(=O)N(C)CCC2CC2)ncn1	19.9
Cc1nncn1CCNC(=O)C1SCCc2sccc21 (centres undefined)	-3.34
Cc1cnn(CCNCc2cc(=O)n3cc(Cl)ccc3n2)c1	-6.7
Cc1cnn(CC(C)NCc2cc(=O)n3ccccc3n2)c1 (centres undefined)	-11.2
Cc1ccc(NC(=O)c2cccc(N(C)C)c2)nc1	-8.66
CC(C)(NCc1cccc(C(N)=O)c1)c1ccc2c(c1)OCO2	-10
CC(C)(NCc1cccc(O)c1)c1ccc2c(c1)OCO2	-11.8
CC(C)(NCc1cccc(C#N)c1)c1ccc2c(c1)OCO2	-9.81
NC1(c2nc(-c3cccs3)cc(=O)[nH]2)CCCCC1	7.44
NC1(c2nc(-c3ccccc3)cc(=O)[nH]2)CCCC1	13.8
Cc1ncncc1C(=O)N1CCCN(Cc2nccn2C(C)C)CC1	-8.96
O=C(NCCO)Nc1c(F)cccc1Oc1ccccc1	-7.66
CCc1ncc2c(n1)CN(CC(=O)NC1CCCCNC1=O)CC2 (centres undefined)	1.9
COCCN(C(=O)c1cc(C)no1)c1ccc(C#N)cc1	-8.51
Cn1c(C2CC2)nc2c1CCN(CC(=O)NC1CCCCNC1=O)C2 (centres undefined)	-7.85
CN(C)CCN(C)S(=O)(=O)Cc1ccc(Br)cc1	11.7
CN1CCC(N(Cc2ccccc2)C(=O)c2ccn3cncc3c2)CC1	3.64
COc1ccc(C(=O)NC2COc3ccccc3C2)cc1OCC(=O)O (centres undefined)	-4.51
CC(C)(C)OC(=O)N1CCCN(Cc2ccon2)c2ccccc21	9.4
COCCN1CCN(CC(=O)NC2(C#N)CCCC2)CC1	-8.93
CCC1CN(CC(=O)NC2(C#N)CCCC2)CCN1CCOC (centres undefined)	-6.19
COCCN1CCN(CC(=O)NC2(C#N)CCCC2)CC1C (centres undefined)	7.99

SMILES	cytotoxicity at 70.5 h [%]
CN1CCC(N(Cc2ccccc2)C(=O)c2nccn3ccnc23)CC1	-7.08
CCN(CC)CCn1cc(NC(=O)Nc2ccccc2OC)cn1	-11.6
CCc1noc(C(C)N2CCC(NS(=O)(=O)c3ccccc3)CC2)n1 (centres undefined)	19.7
O=C(NCC1CCCN1Cc1ccccc1)NCC1(O)CCC1 (centres undefined)	31.1
CC(=O)NCC1CCN(Cc2nc(C3CC3)no2)CC1	-6.87
CC(C)Oc1ccc(CNC(=O)C2CCC(=O)N2)cn1 (centres undefined)	23
CCCC(=O)NCc1ccc(N2CCCCC2)cc1	-10.2
CC(CNC(=O)c1nnn(-c2ccccc2)c1C(F)(F)F)N(C)C (centres undefined)	-8.59
Cc1nnc2n1CCN(CC(=O)NC(C)c1cccc3ccccc13)C2 (centres undefined)	2.87
Cn1c(=O)[nH]c2cc(C(=O)OCC(F)F)ccc21	19.9
CNC(=O)NC(=O)CN1CCN(CC2CC2)c2ccccc21	1.66
O=C(NC1CCS(=O)(=O)c2ccccc21)c1sccc1C1CC1 (centres undefined)	-7.25
O=C(NCc1nncn1C1CC1)C1(c2ccc(F)cc2)CCOCC1	16.9
CCCc1nc(CN(C)CCOc2ccccc2)cs1	-8.59
O=c1c2sccc2nc2n1CCN(Cc1ccsc1)CC2	17.3
CCOc1ccc(CN2CCc3nc4ccsc4c(=O)n3CC2)cc1	-6.57
Clc1ccccc1CN1CCc2nc(C3CCNCC3)ncc2C1	-6.61
Cc1ccc(-c2n[nH]cc2CNCC2CCN(CC(F)(F)F)C2)o1 (centres undefined)	-1.74
c1cncc(-c2nccc(CN3CCC(N4CCCCC4)CC3)n2)c1	18.5
CCn1cc(CN2C[C@@H]3CCCN3C[C@@H]2CCSC)cn1	-2.81
Cc1cc(C[C@@H]2COC[C@H]2NCc2ccc(C(F)(F)F)cc2)on1	-5.79
Cc1ccc(CN[C@@H]2COC[C@H]2Cc2cc(C)no2)cc1	-7.63
